The record followed here is patent US4005100A, “Pyrazole-5-carboxamides” (Hoffmann-La Roche Inc., priority 1972, dated 1977).

The term LD50 denotes the dose expected to kill half of the subjects tested.

Where “and” joins values, the source holds several entries; their conditions need not be identical. Equal values may be shown once.

Data set [1] has as its system streptozotocin-diabetic rats. In words: free fatty acid level (in % of controls) upon oral administration to streptozotocin-diabetic rats. Type of data set: in vivo, rat (Female Albino-rats). The protocol:
(§1) A compound encompassed by the formula I, namely, 3-methyl-N-(5-methyl-3,3-diphenyl-pyrrolin-2-yl)pyrazole-5-carboxamide, upon oral administration to maximal streptozotocin-diabetic rats gave the following values for the glucose and fatty acid levels (in % of controls):
(§2) The test procedure was that described by E. LORCH in Diabetologia 7, 195-203 (1971).
(§3) Female (140-160 gr) Albino-rats were starved (24 hrs) and refed (16 hrs) one week after Streptozotocin administration (60 mg/kg s.c.). Mean plasma glucose values: 500-600 mg/100 ml plasma. Diabetic starved-refed control animals received the suspension vehicle alone.

In data set [2] the test system is streptozotocin-diabetic rats. The data set is described as follows: glucose level (in % of controls) upon oral administration to streptozotocin-diabetic rats. Type of data set: in vivo, rat (Female Albino-rats). Here is the method: as §1, §2, §3
Data set [3] can be described thus: DL50 in the rat, single oral application. The settings on record: in vivo, observation period 10 days. The source says: The DL50 in the rat amounts to 8 g/kg (single oral application: observation period 10 days).
Where [4] appears, read: 100 μmol/kg oral, 4 hours after application.
The mark [5] stands for this setting: 300 μmol/kg oral, 2 hours after application.
[6] abbreviates: 300 μmol/kg oral, 6 hours after application.
[7] abbreviates: 1000 μmol/kg oral, 4 hours after application.

Regarding `Cc1cc(C(=O)NC2=NC(C)CC2(c2ccccc2)c2ccccc2)[nH]n1` (stereo not drawn) [3-methyl-N-(5-methyl-3,3-diphenyl-1-pyrrolin-2-yl)-pyrazole-5-carboxamide], the Free fatty acids in data set [1] (setting [4]) is 56 % of controls; in data set [1] (setting [5]), 59 % of controls; in data set [1] (300 μmol/kg oral, 4 hours after application) it was 72 % of controls and 62 % of controls; in data set [1] (setting [6]), 50 % of controls; in data set [1] (setting [7]) it was 57 % of controls. In addition, the Glucose in data set [2] (100 μmol/kg oral, 2 hours after application) was 70 % of controls; in data set [2] (setting [4]) it was 80 % of controls and 96 % of controls and 50 % of controls; in data set [2] (100 μmol/kg oral, 6 hours after application), 60 % of controls; in data set [2] (setting [5]) it was 76 % of controls and 70 % of controls; in data set [2] (setting [6]), 71 % of controls and 59 % of controls; in data set [2] (setting [7]) it was 89 % of controls and 80 % of controls. In data set [3], this compound gave an LD50 at 240 h of 8000 mg/kg.
